# Legend:
# [1] = molecular target: T1, full-length MALT1 protein (Strep-MALT1(1-824)-His) (Homo sapiens, UniProt Q9UDY8); assay: MALT1 Biochemical Protease Assay; conditions: 10 nM FL MALT1, 200 μM Ac-LRSR-AMC, 50 min pre-incubation, 4 h at RT; read-out: MALT1_Biochemical activity (Ac-LRSR-amc) IC50
# T1 construct: full-length MALT1 protein (Strep-MALT1(1-824)-His) purified from baculovirus-infected insect cells; Strep (N); His (C); made in house; host or cells: baculovirus-infected insect cells
# T1 sequence (Q9UDY8 1-824): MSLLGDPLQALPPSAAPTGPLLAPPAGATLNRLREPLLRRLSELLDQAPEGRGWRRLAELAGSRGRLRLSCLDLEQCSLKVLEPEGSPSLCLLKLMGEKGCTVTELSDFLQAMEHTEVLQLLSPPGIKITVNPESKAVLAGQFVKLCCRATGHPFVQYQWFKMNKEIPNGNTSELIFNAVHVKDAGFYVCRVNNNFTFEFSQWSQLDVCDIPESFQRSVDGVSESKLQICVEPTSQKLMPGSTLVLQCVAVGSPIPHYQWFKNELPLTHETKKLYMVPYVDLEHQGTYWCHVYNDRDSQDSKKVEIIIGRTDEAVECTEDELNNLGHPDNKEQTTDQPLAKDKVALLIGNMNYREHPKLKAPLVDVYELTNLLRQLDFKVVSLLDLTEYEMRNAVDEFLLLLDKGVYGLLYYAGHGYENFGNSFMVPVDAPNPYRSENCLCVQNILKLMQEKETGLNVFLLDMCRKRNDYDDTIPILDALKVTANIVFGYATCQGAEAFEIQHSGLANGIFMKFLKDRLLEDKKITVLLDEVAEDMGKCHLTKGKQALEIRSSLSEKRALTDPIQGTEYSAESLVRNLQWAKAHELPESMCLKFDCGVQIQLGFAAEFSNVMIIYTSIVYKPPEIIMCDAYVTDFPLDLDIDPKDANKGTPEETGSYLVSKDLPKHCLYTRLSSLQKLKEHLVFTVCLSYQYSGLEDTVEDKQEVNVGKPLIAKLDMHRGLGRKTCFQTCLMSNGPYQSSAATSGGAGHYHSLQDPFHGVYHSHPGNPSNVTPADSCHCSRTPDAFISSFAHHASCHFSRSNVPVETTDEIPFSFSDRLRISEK
# Description: MALT1 protease activity was assessed in an in vitro assay using a tetrapeptide as substrate and full-length MALT1 protein (Strep-MALT1(1-824)-His) purified from baculovirus-infected insect cells. The tetrapeptide LRSR is coupled to AMC (7-amino-4-methylcoumarin) and provides a quenched, fluorescent substrate for the MALT1 protease (SM Biochemicals). Cleavage of AMC from the Arginine residue results in an increase in coumarin fluorescence measured at 460 nm (excitation 355 nm). The final assay buffer consisted of 10 nM FL MALT1 protein, 200 μM Ac-LRSR-AMC, 50 mM Tris pH 7.5, 0.6 M Citrate, 1 mM DTT, 1 mM EDTA, 0.05% BSA and 1.5% DMSO. Test compounds were spotted at 50 nL in 100% DMSO per well of a black 384-Proxiplate (Perkin Elmer). Test compound concentrations ranged from 30 μM to 0.5 nM using 11 dilution steps (1:3). Background signal was measured from control wells containing assay buffer without enzyme which functions as low control (LC). High control (HC) values were generated using the reaction with enzyme but no compound treatment. Compounds were pre-incubated with MALT1 enzyme for 50 minutes at RT. Substrate was added subsequently and fluorescence was measured in Labsystems fluoroskan at excitation 355 nm and emission 460 nm to determine time 0. The reaction was subsequently incubated for 4 h at RT and fluorescence was measured. For IC50 calculations, timepoint 0 was subtracted from the 4 h timepoint to correct for any potential autofluorescence of the compounds. The enzyme reaction was linear during the 4 h incubation period. Characterization of the substrate Ac-LRSR-AMC determined the Michaelis constant KM at 200 μM.
# IC50 values were calculated using the following formula (Z prime should be >0.5): […]
# A best-fit curve was fitted by a minimum sum of squares method to the plot of % Controlmin vs. compound concentration. From this an IC50 value (inhibitory concentration causing 50% inhibition) can be obtained. An estimate of the slope of the plot in terms of the Hill coefficient was also obtained.
# Used in “Lexis Dose Response Curve Fitting” Version 1.0.
# [2] = system: secretion of IL10 by OCI-LY3 ABC-DLBCL cells; assay: Human IL10 Mesoscale assay (OCI-LY3); type: cell-based; conditions: 24 h incubation, IL10 in supernatant
# Description: (§1) NFKB signaling regulates the secretion of multiple cytokines, including IL6 and IL10. Secretion of the cytokines IL6 and IL10 by OCI-LY3 ABC-DLBCL cells was measured using a mesoscale assay. Inhibition of NFKB signaling by MALT1 inhibitors results in a decrease of IL6/10 secretion.
# (§2) OCI-LY3 cells were propagated in RPMI-1640 (Sigma Aldrich) supplemented with 10% fetal bovine serum (HyClone), 1 mM sodium pyruvate (Invitrogen), 2 mM L-glutamine (Sigma Aldrich) and 1% PenStrep (Sigma Aldrich). Cell passage number should not exceed 30. Cells should be kept between 0.5-2.5 million cells per mL during culturing and cells should be supplemented every 2-3 days with fresh 50 μM beta-mercaptoethanol. No beta-mercaptoethanol was used during the mesoscale assay.
# (§3) For the Mesoscale assay, 100,000 OCI-LY3 cells were seeded per well into black-colored 96-well plates with clear bottom (Corning #3904) and test compounds were added in 9 dilution steps (1:2) ranging from 15 μM to 58.6 nM (final DMSO concentration 0.3%). DMSO control wells were used to determine the maximum signal (High Control (HC)). Treatment with the BTK inhibitor RN486 in a dose range from 30 nM to […] (9 dilutions of 1:2) served as a positive control for NFKB pathway inhibition and was used to determine the maximum inhibition (Low Control (LC)). Compounds and cells were incubated for 24 h at 37° C. and 5% CO2 (assay volume is 150 μL). After 24 h of incubation 50 μL of the supernatant was transferred to a MSD plate (V-Plex Proinflammation Panel 1 (human) kit, Mesoscale (MSD)) and incubated for 2 h with vigorous shaking (600 rpm) at room temperature. Following incubation, plates were washed 3× with PBS+0.05% Tween-20 and 25 μL detection antibody solution (IL6 & IL10 antibodies in diluent 3 (MSD)) was added per well followed by 2 h of incubation with vigorous shaking (600 rpm) at room temperature. After 3× washes with PBS+0.05% Tween-20, plates were incubated with 150 μL 2× Read Buffer T and read on SECTOR imager.
# [3] = system: secretion of IL6 by OCI-LY3 ABC-DLBCL cells; assay: Human IL6 Mesoscale assay (OCI-LY3); type: cell-based; conditions: 24 h incubation, IL6 in supernatant
# Description: as §1, §2, §3
Compound,IC50 [1],IC50 [2],IC50 [3]
COC(C)c1c(NC(=O)Nc2cnc(-n3nccn3)c(Cl)c2)cncc1OC1CC1 (racemic) [Co. 13],850 nM,,
CCOC(=O)COc1cncc(NC(=O)Nc2cnc(-n3nccn3)c(Cl)c2)c1C(C)OC (racemic) [Co. 14],3240 nM,8130 nM,11000 nM
COC(C)c1c(C)cncc1NC(=O)Nc1cnc(-n2nccn2)c(Cl)c1 (racemic) [Co. 20],4170 nM,> 3020 nM,> 3020 nM
COC(C)c1c(F)cncc1NC(=O)Nc1cnc(-n2nccn2)c(Cl)c1 (racemic) [Co. 21],2630 nM,,
COC(C)c1c(NC(=O)Nc2cnc(-n3nccn3)c(Cl)c2)cncc1C1CC1 (racemic) [Co. 28],600 nM,1100 nM,1950 nM
C=C(C)c1cncc(NC(=O)Nc2cnc(-n3nccn3)c(Cl)c2)c1C(C)OC (racemic) [Co. 29],980 nM,1780 nM,1820 nM
COC(C)c1c(NC(=O)Nc2cnc(-n3nccn3)c(Cl)c2)cncc1C(C)C (racemic) [Co. 30],2140 nM,,
COC(C)c1c(NC(=O)Nc2cnc(-n3nccn3)c(Cl)c2)cncc1C1COC1 (racemic) [Co. 31],1230 nM,,
CNc1cncc(NC(=O)Nc2cnc(-n3nccn3)c(Cl)c2)c1C(C)OC (racemic) [Co. 33],1820 nM,,
COC(C)c1c(NC(=O)Nc2cnc(-n3nccn3)c(Cl)c2)cncc1C(N)=O (racemic) [Co. 39],8710 nM,14100 nM,> 15100 nM
COC(C)c1c(Br)c(C)nc(C)c1NC(=O)Nc1cnc(-n2nccn2)c(Cl)c1 (racemic) [Co. 49],620 nM,1700 nM,2340 nM
COC(C)c1c(Br)cnc(C)c1NC(=O)Nc1cnc(-n2nccn2)c(Cl)c1 (racemic) [Co. 50],7410 nM,,
COC(C)c1cc(C)ncc1NC(=O)Nc1cnc(-n2nccn2)c(Cl)c1 (racemic) [Co. 106],9120 nM,5750 nM,7240 nM
"COC(C)c1c(Br)cncc1NC(=O)Nc1cnc(-n2nccn2)c(Cl)c1 (single isomer, unassigned) [Co. 18]",100 nM,190 nM,100 nM
"COC(C)c1c(Br)cncc1NC(=O)Nc1cnc(-n2nccn2)c(Cl)c1 (single isomer, unassigned) [Co. 19]",2750 nM,,
"COC(C)c1c(NC(=O)Nc2cnc(-n3nccn3)c(C(F)(F)F)c2)cnc(C)c1Br (single isomer, unassigned) [Co. 59]",10 nM,70 nM,100 nM
"COC(C)c1c(NC(=O)Nc2ccnc(C(F)(F)F)c2)cnc(C)c1Cl (single isomer, unassigned) [Co. 65]",15100 nM,6610 nM,> 15000 nM
"COC(C)c1c(NC(=O)Nc2cnc(C3CC3)c(C(F)(F)F)c2)cnc(C)c1Cl (single isomer, unassigned) [Co. 68]",> 30200 nM,> 15000 nM,> 15000 nM

Compound,IC50 [1],IC50 [2],IC50 [3]
"COc1ncc(NC(=O)Nc2cnc(C)c(Br)c2C(C)OC)cc1C#N (single isomer, unassigned) [Co. 98]",5890 nM,2570 nM,5750 nM
"COC(C)c1c(NC(=O)Nc2cnc(-n3ncc(C(C)O)n3)c(Cl)c2)cnc(C)c1C#N (single isomer, unassigned) [Co. 114]",60 nM,170 nM,400 nM
"COC(C)c1c(NC(=O)Nc2cnc(-n3nccn3)c(C(F)(F)F)c2)cnc(C(F)F)c1C#N (single isomer, unassigned) [Co. 127]",30 nM,40 nM,60 nM
"COC(C)c1c(NC(=O)Nc2cnc(-n3nccn3)c(C(F)(F)F)c2)cnc(C(F)F)c1C#N (single isomer, unassigned) [Co. 128]",230 nM,210 nM,460 nM
"CO[C@@H](C)c1c(NC(=O)Nc2cnc(OC(F)F)c(Cl)c2)cnc(N)c1Cl (single isomer, unassigned) [Co. 135]",2000 nM,,
CO[C@@H](C)c1c(NC(=O)Nc2cnc(-n3nccn3)c(Cl)c2)cncc1OCc1ccccc1 [Co. 2],2400 nM,,
COC(C)c1c(NC(=O)Nc2cnc(-n3nccn3)c(Cl)c2)cncc1OCc1ccccc1 (stereo not shown) [Co. 3],> 30200 nM,,
CO[C@@H](C)c1c(O)cncc1NC(=O)Nc1cnc(-n2nccn2)c(Cl)c1 [Co. 5],2630 nM,,
COC(C)c1c(O)cncc1NC(=O)Nc1cnc(-n2nccn2)c(Cl)c1 (stereo not shown) [Co. 6],24000 nM,,
COc1cncc(NC(=O)Nc2cnc(-n3nccn3)c(Cl)c2)c1C(C)OC (stereo not shown) [Co. 7],170 nM,,
CO[C@@H](C)c1c(NC(=O)Nc2cnc(-n3nccn3)c(Cl)c2)cncc1OC(C)C [Co. 10],3020 nM,,
COC(C)c1c(NC(=O)Nc2cnc(-n3nccn3)c(Cl)c2)cncc1OCC1CC1 (stereo not shown) [Co. 11],1740 nM,,
COC(C)c1c(NC(=O)Nc2cnc(-n3nccn3)c(Cl)c2)cncc1OC1COC1 (stereo not shown) [Co. 12],1700 nM,,
COC(C)c1c(NC(=O)Nc2cnc(-n3nccn3)c(Cl)c2)cncc1OCC(N)=O (stereo not shown) [Co. 16],1410 nM,,
COC(C)c1c(NC(=O)Nc2cnc(-n3nccn3)c(Cl)c2)cncc1NC(C)C (stereo not shown) [Co. 32],2820 nM,,
COC(C)c1c(NC(=O)Nc2cnc(-n3nccn3)c(Cl)c2)cnc(C2CC2)c1Br (stereo not shown) [Co. 47],8710 nM,,
COC(C)c1c(Br)cnc(C2CC2)c1NC(=O)Nc1cnc(-n2nccn2)c(Cl)c1 (stereo not shown) [Co. 48],> 30200 nM,,
CO[C@H](C)c1c(NC(=O)Nc2cnc(OC(F)F)c(Cl)c2)cnc(C)c1C#N [Co. 71],,150 nM,320 nM
